# Key:
# Test in all cases: Test B pre-/postemergence
# Format in all cases: in vivo
# Parameters in all cases: key: 0 is no effect; 10 is complete control
# corn (Zea mays) = system: corn (Zea mays)
# In short: (§1)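 Seeds were planted and sprayed preemergence, while plants at 2 to 18 cm (1- to 4-leaf stage) were sprayed postemergence at the same time, with test chemical in a non-phytotoxic solvent mixture containing surfactant. After twelve to sixteen days in a greenhouse, injury was rated visually against untreated controls on a 0–10 scale.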
# [1] = system: giant foxtail (Setaria faberii)
# In short: as §1
# [2] = system: pigweed (Amaranthus retroflexus)
# In short: as §1
# wild oat (Avena fatua) = system: wild oat (Avena fatua)
# In short: as §1
# [3] = system: velvetleaf (Abutilon theophrasti)
# In short: as §1
# [4] = system: cocklebur (Xanthium strumarium)
# In short: as §1
# [5] = system: bedstraw (Galium aparine)
# In short: as §1
# soybean (Glycine max) = system: soybean (Glycine max)
# In short: as §1
# [6] = system: sugar beet (Beta vulgaris)
# In short: as §1
# rape (Brassica napus) = system: rape (Brassica napus)
# In short: as §1
# [7] = system: crabgrass (Digitaria sanguinalis)
# In short: as §1
# [8] = system: momingglory (Ipomoea hederacea)
# In short: as §1
# [9] = system: wheat (Triticum aestivum)
# In short: as §1
# [10] = system: purple nutsedge (Cyperus rotundus)
# In short: as §1
compound,measurement,setting,value
"Cc1cnc(-n2ccc(C(F)(F)F)n2)nc1Cc1cccc(C(F)(F)F)c1 [Example 2, 5-methyl-4-[[3-(trifluoromethyl)phenyl]methyl]-2-[3-(trifluoromethyl)-1H-pyrazol-1-yl]pyrimidine]","Plant response rating, Corn","corn (Zea mays); Rate 62 g/ha, Postemergence",2
same,Corn plant response rating,"corn (Zea mays); Rate 62 g/ha, Preemergence",0
same,"Plant response rating, Corn","corn (Zea mays); Rate 125 g/ha, Postemergence",4
same,Corn plant response rating,"corn (Zea mays); Rate 125 g/ha, Preemergence",1
same,"Plant response rating, Corn","corn (Zea mays); Rate 250 g/ha, Postemergence",6
same,"Plant response rating, Corn","corn (Zea mays); Rate 250 g/ha, Preemergence",1
same,"Plant response rating, Corn","corn (Zea mays); Rate 500 g/ha, Postemergence",7
same,"Plant response rating, Corn","corn (Zea mays); Rate 500 g/ha, Preemergence",2
same,"Plant response rating, Giant foxtail","[1]; Rate 62 g/ha, Postemergence",7
same,Giant foxtail plant response rating,"[1]; Rate 62 g/ha, Preemergence",10
same,"Plant response rating, Giant foxtail","[1]; Rate 125 g/ha, Postemergence",9
same,Giant foxtail plant response rating,"[1]; Rate 125 g/ha, Preemergence",10
same,"Plant response rating, Giant foxtail","[1]; Rate 250 g/ha, Postemergence",9
same,"Plant response rating, Giant foxtail","[1]; Rate 250 g/ha, Preemergence",10
same,"Plant response rating, Giant foxtail","[1]; Rate 500 g/ha, Postemergence",10
same,"Plant response rating, Giant foxtail","[1]; Rate 500 g/ha, Preemergence",10
same,"Plant response rating, Redroot pigweed","[2]; Rate 62 g/ha, Postemergence",7
same,Redroot pigweed plant response rating,"[2]; Rate 62 g/ha, Preemergence",10
same,"Plant response rating, Redroot pigweed","[2]; Rate 125 g/ha, Postemergence",9
same,Redroot pigweed plant response rating,"[2]; Rate 125 g/ha, Preemergence",10
same,"Plant response rating, Redroot pigweed","[2]; Rate 250 g/ha, Postemergence",9
same,"Plant response rating, Redroot pigweed","[2]; Rate 250 g/ha, Preemergence",10
same,"Plant response rating, Redroot pigweed","[2]; Rate 500 g/ha, Postemergence",9
same,"Plant response rating, Redroot pigweed","[2]; Rate 500 g/ha, Preemergence",10
same,"Plant response rating, Wild oats","wild oat (Avena fatua); Rate 62 g/ha, Postemergence",3
same,Wild oats plant response rating,"wild oat (Avena fatua); Rate 62 g/ha, Preemergence",6
same,"Plant response rating, Wild oats","wild oat (Avena fatua); Rate 125 g/ha, Postemergence",3
same,Wild oats plant response rating,"wild oat (Avena fatua); Rate 125 g/ha, Preemergence",9
same,"Plant response rating, Wild oats","wild oat (Avena fatua); Rate 250 g/ha, Postemergence",6
same,"Plant response rating, Wild oats","wild oat (Avena fatua); Rate 250 g/ha, Preemergence",9
same,"Plant response rating, Wild oats","wild oat (Avena fatua); Rate 500 g/ha, Postemergence",7
same,"Plant response rating, Wild oats","wild oat (Avena fatua); Rate 500 g/ha, Preemergence",10
same,"Plant response rating, Velvetleaf","[3]; Rate 62 g/ha, Postemergence",8
same,Velvetleaf plant response rating,"[3]; Rate 62 g/ha, Preemergence",6
same,"Plant response rating, Velvetleaf","[3]; Rate 125 g/ha, Postemergence",9
same,Velvetleaf plant response rating,"[3]; Rate 125 g/ha, Preemergence",6
same,"Plant response rating, Velvetleaf","[3]; Rate 250 g/ha, Postemergence",9
same,"Plant response rating, Velvetleaf","[3]; Rate 250 g/ha, Preemergence",8
same,"Plant response rating, Velvetleaf","[3]; Rate 500 g/ha, Postemergence",9
same,"Plant response rating, Velvetleaf","[3]; Rate 500 g/ha, Preemergence",10
same,"Plant response rating, Cocklebur","[4]; Rate 62 g/ha, Postemergence",8
same,Cocklebur plant response rating,"[4]; Rate 62 g/ha, Preemergence",0
same,"Plant response rating, Cocklebur","[4]; Rate 125 g/ha, Postemergence",8
same,Cocklebur plant response rating,"[4]; Rate 125 g/ha, Preemergence",1
same,"Plant response rating, Cocklebur","[4]; Rate 250 g/ha, Postemergence",8
same,"Plant response rating, Cocklebur","[4]; Rate 250 g/ha, Preemergence",1
same,"Plant response rating, Cocklebur","[4]; Rate 500 g/ha, Postemergence",9
same,"Plant response rating, Cocklebur","[4]; Rate 500 g/ha, Preemergence",3
same,"Plant response rating, Bedstraw","[5]; Rate 62 g/ha, Postemergence",9
same,Bedstraw plant response rating,"[5]; Rate 62 g/ha, Preemergence",10
same,"Plant response rating, Bedstraw","[5]; Rate 125 g/ha, Postemergence",9
same,Bedstraw plant response rating,"[5]; Rate 125 g/ha, Preemergence",10
same,"Plant response rating, Bedstraw","[5]; Rate 250 g/ha, Postemergence",9
same,"Plant response rating, Bedstraw","[5]; Rate 250 g/ha, Preemergence",10
same,"Plant response rating, Bedstraw","[5]; Rate 500 g/ha, Postemergence",9
same,"Plant response rating, Bedstraw","[5]; Rate 500 g/ha, Preemergence",10
same,"Plant response rating, Soybean","soybean (Glycine max); Rate 62 g/ha, Postemergence",6
same,Soybean plant response rating,"soybean (Glycine max); Rate 62 g/ha, Preemergence",0
same,"Plant response rating, Soybean","soybean (Glycine max); Rate 125 g/ha, Postemergence",7
same,Soybean plant response rating,"soybean (Glycine max); Rate 125 g/ha, Preemergence",1
same,"Plant response rating, Soybean","soybean (Glycine max); Rate 250 g/ha, Postemergence",8
same,"Plant response rating, Soybean","soybean (Glycine max); Rate 250 g/ha, Preemergence",2
same,"Plant response rating, Soybean","soybean (Glycine max); Rate 500 g/ha, Postemergence",8
same,"Plant response rating, Soybean","soybean (Glycine max); Rate 500 g/ha, Preemergence",5
same,"Plant response rating, Sugarbeets","[6]; Rate 62 g/ha, Postemergence",9
same,Sugarbeets plant response rating,"[6]; Rate 62 g/ha, Preemergence",10
same,"Plant response rating, Sugarbeets","[6]; Rate 125 g/ha, Postemergence",9
same,Sugarbeets plant response rating,"[6]; Rate 125 g/ha, Preemergence",10
same,"Plant response rating, Sugarbeets","[6]; Rate 250 g/ha, Postemergence",9
same,"Plant response rating, Sugarbeets","[6]; Rate 250 g/ha, Preemergence",10
same,"Plant response rating, Sugarbeets","[6]; Rate 500 g/ha, Postemergence",9
same,"Plant response rating, Sugarbeets","[6]; Rate 500 g/ha, Preemergence",10
same,"Plant response rating, Rape","rape (Brassica napus); Rate 62 g/ha, Postemergence",9
same,Rape plant response rating,"rape (Brassica napus); Rate 62 g/ha, Preemergence",10
same,"Plant response rating, Rape","rape (Brassica napus); Rate 125 g/ha, Postemergence",9
same,Rape plant response rating,"rape (Brassica napus); Rate 125 g/ha, Preemergence",10
same,"Plant response rating, Rape","rape (Brassica napus); Rate 250 g/ha, Postemergence",9
same,"Plant response rating, Rape","rape (Brassica napus); Rate 250 g/ha, Preemergence",10
same,"Plant response rating, Rape","rape (Brassica napus); Rate 500 g/ha, Postemergence",10
same,"Plant response rating, Rape","rape (Brassica napus); Rate 500 g/ha, Preemergence",10
same,"Plant response rating, Crabgrass","[7]; Rate 62 g/ha, Postemergence",8
same,Crabgrass plant response rating,"[7]; Rate 62 g/ha, Preemergence",9
same,"Plant response rating, Crabgrass","[7]; Rate 125 g/ha, Postemergence",9
same,Crabgrass plant response rating,"[7]; Rate 125 g/ha, Preemergence",10
same,"Plant response rating, Crabgrass","[7]; Rate 250 g/ha, Postemergence",9
same,"Plant response rating, Crabgrass","[7]; Rate 250 g/ha, Preemergence",10
same,"Plant response rating, Crabgrass","[7]; Rate 500 g/ha, Postemergence",10
same,"Plant response rating, Crabgrass","[7]; Rate 500 g/ha, Preemergence",10
same,"Plant response rating, Morningglory","[8]; Rate 62 g/ha, Postemergence",8
same,Morningglory plant response rating,"[8]; Rate 62 g/ha, Preemergence",7
same,"Plant response rating, Morningglory","[8]; Rate 125 g/ha, Postemergence",9
same,Morningglory plant response rating,"[8]; Rate 125 g/ha, Preemergence",9
same,"Plant response rating, Morningglory","[8]; Rate 250 g/ha, Postemergence",9
same,"Plant response rating, Morningglory","[8]; Rate 250 g/ha, Preemergence",10
same,"Plant response rating, Morningglory","[8]; Rate 500 g/ha, Postemergence",9
same,"Plant response rating, Morningglory","[8]; Rate 500 g/ha, Preemergence",10
same,"Plant response rating, Wheat","[9]; Rate 62 g/ha, Postemergence",2
same,Wheat plant response rating,"[9]; Rate 62 g/ha, Preemergence",1
same,"Plant response rating, Wheat","[9]; Rate 125 g/ha, Postemergence",2
same,Wheat plant response rating,"[9]; Rate 125 g/ha, Preemergence",2
same,"Plant response rating, Wheat","[9]; Rate 250 g/ha, Postemergence",3
same,"Plant response rating, Wheat","[9]; Rate 250 g/ha, Preemergence",3
same,"Plant response rating, Wheat","[9]; Rate 500 g/ha, Postemergence",5
same,"Plant response rating, Wheat","[9]; Rate 500 g/ha, Preemergence",3
same,"Plant response rating, Nutsedge","[10]; Rate 62 g/ha, Postemergence",0
same,Nutsedge plant response rating,"[10]; Rate 62 g/ha, Preemergence",0
same,"Plant response rating, Nutsedge","[10]; Rate 125 g/ha, Postemergence",0
same,Nutsedge plant response rating,"[10]; Rate 125 g/ha, Preemergence",0
same,"Plant response rating, Nutsedge","[10]; Rate 250 g/ha, Preemergence",0
same,"Plant response rating, Nutsedge","[10]; Rate 500 g/ha, Postemergence",2
same,"Plant response rating, Nutsedge","[10]; Rate 500 g/ha, Preemergence",0
